Experimental findings from US4759917A, “Oxidative dissolution of gallium arsenide and separation of gallium from arsenic” (priority 1987, dated 1988) are described below.

Data set [1] in a line: Aqueous solubilities of N-alkylalkano and N-H hydroxamic acids (Table 1). It is filed as physicochemical. The source says:
It is desirable that the N-organo hydroxamic acid have low solubility in water in order to effect ready separation of the chelated gallium from the aqueous oxidizing medium.
For the extraction to occur, it is necessary that the extractant have some slight solubility in the aqueous Ga-containing medium.

Data set [2] is described as follows: Example 2: complexing agents with hydrogen peroxide to oxidize and dissolve gallium arsenide (Table 3).
A short description of data set [3]: Example 4: oxidizing agents with N-methylnonanohydroxamic acid as complexing agent on gallium arsenide (Table 5). As for the experimental part:
A series of procedures were conducted to test effectiveness of various complexing agents with hydrogen peroxide to oxidize and effect dissolution of gallium arsenide. A 0.5 gram amount of GaAs powder was added to a 50 ml beaker with 20 ml deionized water. The complexing agent was added with stirring, followed by addition of 5 ml 30% hydrogen peroxide in water with stirring. Stirring was continued for about 10 minutes with gradual heating on a hot plate to 85° C., with observation for reaction. The mixtures were then allowed to stand at room temperature for about four days with observation for further changes, and the percentage of the starting gallium which had dissolved was determined by analysis of the liquid by atomic absorption.
Using the procedure of Example 2 and 3.0 ml of N-methylnonanohydroxamic acid as complexing agent, a number of oxidizing agents were employed with gallium arsenide, with results as reported in Table 5.

Data set [4] can be described thus: Hydrolysis of hydroxamic acids in gallium extraction, washing and stripping procedures (Table 2). It is filed as physicochemical. To be noted: hydrolysis after gallium extraction, spectrophotographic analysis. As for the experimental part:
The extent of hydrolysis of some hydroxamic acids used in some gallium extraction, washing and stripping procedures was determined by spectrophotographic analysis of the solution after completion of the procedures, with results as reported in Table 2.
The procedures and further information on the hydrolytic stability of N-alkyl hydroxamic acids are reported in the aforesaid copending application Ser. No. 937,849. The hydrolytic stability of the N-alkyl hydroxamic acids is an advantage for their use in the present invention.

[5] abbreviates: 3.0 ml N-methylnonanohydroxamic acid as complexing agent.
Setting [6] is: 0.5 g GaAs, 20 ml water, 5 ml 30% H2O2, heated to 85° C. about 10 min, then about four days at room temp.
Setting [7] is: observation during about 10 min stirring with heating to 85° C., H2O2.

Where “and” joins values, the source holds several entries; their conditions need not be identical. Identical values can stand only once. Counter-ions that a name gives are not always drawn. Like-named read-outs stand apart in the source and are kept apart here.

Take `CCCCCCCCCC(=O)N(O)C(C)C` [N--isopropyldecanohydroxamic acid]: in data set [1], the “Solubility (25° C.)” value turned out to be 3.9 ± 1 ppm and the “Solubility (25° C.), molarity” value is 1.68 × 10^-5 molarity. Consider `[Na+].[OH-]` [NaOH, sodium hydroxide], for which, in data set [2], the “% Ga in Solution After 4 Days” value stood at 100%. Regarding `CCCCCCCCCc1ccc(O)cc1` [4-nonylphenol], in data set [2], the “% Ga in Solution After 4 Days” value is 0% and the “Initial Result” value is “No reaction”. On to `O=C(O)CN(CCN(CC(=O)O)CC(=O)O)CC(=O)O` [Ethylene diamine tetracetic acid], for which the “% Ga in Solution After 4 Days” value in data set [2] was 84.2%. Turning to `BrBr` [liquid bromine, bromine], the “Result: time to complete reaction, no heating” value in data set [3] (setting [5]) stood at 37 s.

Consider `Oc1cccc2cccnc12` [Oxine (8-hydroxy quinoline), 8-hydroxy quinoline], for which the “Initial Result” value in data set [2] is on record as “Precipitate”. `CCCCCCCC(=O)NO` [octanohydroxamic acid]: the “Initial Result: % dissolved in 24 hrs.” value in data set [2] (1.48 grams, omitted heating, 24 hrs.) was 52.5%. Besides, the “% Ga in Solution After 4 Days (after addn. of 10 ml n-BuOH)” value in data set [2] (omitted heating, after addn. of 10 ml n-BuOH, H2O2) came to 100%. In the case of `CC(=O)NO` [Acetohydroxamic Acid], in data set [2], the “Initial Result: time to complete dissolution” value was 25 min. Moreover, the “Initial Result: % reacted in 30 min.” value in data set [2] (0.62 grams, omitted heating, 30 min.) is given as 80%. Further, the “% Ga in Solution After 4 Days (omitted heating)” value (shortened to “% Ga … (omitted heating)”) in data set [2] (omitted heating, H2O2) is 100%. As for `CCCCC(CC)COP(=O)(O)OCC(CC)CCCC` (stereo not shown) [Di-(2-ethylhexyl) phosphoric acid], in data set [2], the “% Ga in Solution After 4 Days” value was 0% and the “Initial Result” value is given as “No reaction”.

Regarding `C=CC(CC(C)(C)CC(C)(C)C)c1ccc2cccnc2c1O` (stereo not shown) [Kelex ® 100], the “% Ga in Solution After 4 Days” value in data set [2] stood at 0%. As for “N-ethyl naphthenohydroxamic acid [N--Ethyl naphthenohydroxamic acid]”, the “% Decomposition” value in data set [4] is on record as -0.53%. In the case of `O=[N+]([O-])O` [HNO3 conc., nitric acid], the “Result: time to complete reaction” value in data set [3] (setting [5]) came out at 50 s. Further, the “Result: time to complete reaction, no complexing agent” value in data set [3] (no complexing agent) worked out at 20 min. Turning to `CCCCCCCCCC(=O)N(O)CCCCCC` [N--hexyldecanohydroxamic acid], in data set [1], the “Solubility (25° C.)” value is given as 1.6 ± 1 ppm and the “Solubility (25° C.), molarity” value is on record as 5.71 × 10^-6 molarity. As to `CC(=O)N(C)O` [Nmethyl acetohydroxamic acid, N-methyl acetohydroxamic acid], in data set [2], the “Initial Result: time to complete dissolution” value amounted to 5 min. Moreover, in data set [2] (0.80 grams, omitted heating, 10 min.), the “Initial Result: % reacted in 10 min.” value was found to be 90%. The “effectiveness in reaction and dissolution of gallium arsenide” value (“effectiveness” below) in data set [2] (H2O2 as oxidizing agent) is “the chelated gallium does not readily separate from the aqueous oxidation medium”. In addition, in data set [2] (omitted heating, H2O2), the “% Ga … (omitted heating)” value is reported as 100%. As for “versatohydroxamic acid [versatohydroxamic acid (not N--alkyl), reference compound]”, in data set [1], the “Solubility (25° C.)” value was found to be 1600. ppm and the “Solubility (25° C.), molarity” value is on record as 8.54 × 10^-3 molarity.

Regarding `O.O=P([O-])(O)O.[Na+]` [NaH2 PO4.H2 O], the “% Ga in Solution After 4 Days” value in data set [2] (setting [6]) worked out at 0%. Besides, in data set [2] (setting [7]), the “Initial Result” value is “No reaction”.

In the case of `O=C(O)CC(O)(CC(=O)O)C(=O)O` [Sodium citrate], the “% Ga in Solution After 4 Days” value in data set [2] turned out to be 100%.

Turning to “naphthenohydroxamic acid [N--H naphthenohydroxamic acid, reference compound]”, the “% Decomposition” value in data set [4] is on record as 45.0%. For the compound `[K+].[OH-]` [KOH, potassium hydroxide], the “Initial Result” value in data set [2] is “No reaction”. For `O=P(O)(O)CCP(=O)(O)O` [H2 O3 PCH2 CH2 PO3 H2, ethylene diphosphonic acid], the “effectiveness” value in data set [2] (H2O2 as oxidizing agent) is “an insoluble gallium complex may form and precipitate from the aqueous oxidizing medium”. Also, in data set [2] (heating to 85° C., H2O2), the “Initial Result: time to complete reaction” value stood at 3 min. With “N-methyl naphthenohydroxamic acid [N--Methyl naphthenohydroxamic acid]”, the “time to complete dissolution after addition to Test N mixture” value in data set [2] (2.98 grams added to Test N mixture after no reaction in 11.5 min.) was 60 s. Moreover, the “effectiveness” value in data set [2] (H2O2 as oxidizing agent) was “rapid reaction and dissolution of the gallium arsenide”. Further, in data set [4], the “% Decomposition” value was “+0.14%”. On to `O=C(O)CN(CC(=O)O)CC(=O)O` [Sodium nitrilo triacetate], for which, in data set [2], the “% Ga in Solution After 4 Days” value is recorded as 100%. The “Initial Result: time to complete reaction” value in data set [2] (heating to 85° C., H2O2) is 3 min. As for `O=P([O-])(O)O.[Na+]` [Monobasic sodium phosphate (NaH2 PO4), Monobasic sodium phosphate], the “% Ga in Solution After 4 Days” value in data set [2] (setting [6]) was found to be 0%. Besides, the “Initial Result” value in data set [2] (setting [7]) is listed as “No reaction”. For the compound `CCCCCCCCCCCC(=O)NO` [dodecanohydroxamic acid], in data set [2] (H2O2 as oxidizing agent), the “effectiveness” value is reported as “reaction did not occur”. In addition, the “Initial Result” value in data set [2] (setting [7]) is listed as “No reaction”. Further, the “% Ga … (omitted heating)” value in data set [2] (omitted heating, H2O2) is 100%. Besides, in data set [2] (with 10 ml 2-ethyl hexanol, omitted heating, H2O2), the “Initial Result: time to complete reaction” value amounted to 360 min. Further, in data set [2] (with 10 ml 2-ethyl hexanol, omitted heating, mild exotherm, 15 min.), the “Initial Result in 15 min.” value is reported as “Some reaction”. Moreover, the “time for complete reaction” value in data set [2] (with a solvent (Test ε)) was “about 6 hours”. As to `O=P([O-])([O-])OP(=O)([O-])[O-].[Na+].[Na+].[Na+].[Na+]` [Sodium pyrophosphate Na4 P2 O7, Sodium pyrophosphate], in data set [2], the “% Ga in Solution After 4 Days” value is listed as 100%, the “Initial Result” value was “white prec” and the “Initial Result: time to complete reaction (min)” value stood at 3. `O=S(=O)([O-])OOS(=O)(=O)[O-].[K+].[K+]` [Potassium persulfate]: the Result result in data set [3] (setting [5]) is “No reaction”. Turning to `CCCCCCCCCC(CCCCCCCCC)N(O)C(=O)C1CCCCC1` [N-(1-nonyldecyl) cyclohexanohydroxamic acid], in data set [1], the “Solubility (25° C.)” value stood at 0.7 ± 1 ppm and the “Solubility (25° C.), molarity” value is on record as 1.7 × 10^-6 molarity. For the compound `O=P(O)(O)O` [Potassium phosphate (K3 PO4), Potassium phosphate], in data set [2], the “% Ga in Solution After 4 Days” value turned out to be 100% and the “Initial Result: time to complete reaction (secs)” value came out at 50. Regarding “N-n-propyl naphthenohydroxamic acid [N--Propyl naphthenohydroxamic acid]”, the “% Decomposition” value in data set [4] is “+0.74%”.

On to `CCCCCCCCCC(=O)N(C)O` [N--methyldecanohydroxamic acid], for which the “Solubility (25° C.)” value in data set [1] is 111. ppm and 82. ppm. `O=C(O)C(=O)O` [Sodium oxalate]: the “% Ga in Solution After 4 Days” value in data set [2] worked out at 100%. In data set [2] (heating to 85° C., H2O2), the “Initial Result: time to complete reaction” value was found to be 1 min. Moreover, the “Initial Result” value in data set [2] (setting [7]) was “small prec”. For the compound `CC(O)(P(=O)(O)O)P(=O)(O)O` [Dequest ® 2010], the “% Ga in Solution After 4 Days” value in data set [2] worked out at 100%. In addition, the “effectiveness” value in data set [2] (H2O2 as oxidizing agent) is given as “works well”. Turning to `CCCCCCCCCCCCCCCC(=O)N(C)O` [N--methylhexadecanohydroxamic acid], in data set [1], the “Solubility (25° C.)” value is on record as 1.3 ± 1 ppm and the “Solubility (25° C.), molarity” value is recorded as 4.60 × 10^-6 molarity. Regarding `O=P([O-])([O-])OP(=O)([O-])OP(=O)([O-])[O-].[Na+].[Na+].[Na+].[Na+].[Na+]` [Sodium Triphosphate], the “% Ga in Solution After 4 Days” value in data set [2] was 100%. As to `O=P([O-])([O-])O.[Na+].[Na+]` [Disbasic Sodium phosphate (Na2 HPO4), Disbasic Sodium phosphate], in data set [2], the “% Ga in Solution After 4 Days” value was 100%; the “effectiveness” value was “effective in causing dissolution, but at a slow rate and with some white precipitate formation”.

For neotridecanohydroxamic acid, in data set [1], the “Solubility (25° C.)” value is given as 328. ppm and the “Solubility (25° C.), molarity” value is given as 1.43 × 10^-3 molarity.

Take `II`: the “Result: time to complete reaction, no heating” value in data set [3] (setting [5]) worked out at 60 s.
